According to patent US20150218172A1, “Pyrrolo[2,3-D]Pyrimidine Tropomyosin-Related Kinase Inhibitors” (PFIZER LIMITED, priority 2012, published 2015):

Molecular target: T1, TrkA (Homo sapiens, UniProt P04629)
T1 construct: aa 441-796; His; purchased Invitrogen PV3144
Assay: Isolated TRK enzyme assay (HTRF KinEASE-TK kit), PV3144 TrkA enzyme assay
Type: biochemical
Details: PV3144 TrkA enzyme assay, recombinant His-tagged cytoplasmic domain aa 441-796, 4 nM enzyme, 40 uM ATP; arithmetic mean where more than one reading; read-out: Trka enzyme (IC50)
Summary of the method: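 HTRF KinEASE tyrosine-phosphorylation readout (665/620 nm ratio) on a 1 uM biotinylated substrate after reaction with preactivated His-tagged TrkA cytoplasmic domain plus ATP and MgCl2/DTT buffer. Compound preincubated 20 min with enzyme; IC50 from log-concentration sigmoid curve, averaged where repeated.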

T1 sequence (P04629 441-796): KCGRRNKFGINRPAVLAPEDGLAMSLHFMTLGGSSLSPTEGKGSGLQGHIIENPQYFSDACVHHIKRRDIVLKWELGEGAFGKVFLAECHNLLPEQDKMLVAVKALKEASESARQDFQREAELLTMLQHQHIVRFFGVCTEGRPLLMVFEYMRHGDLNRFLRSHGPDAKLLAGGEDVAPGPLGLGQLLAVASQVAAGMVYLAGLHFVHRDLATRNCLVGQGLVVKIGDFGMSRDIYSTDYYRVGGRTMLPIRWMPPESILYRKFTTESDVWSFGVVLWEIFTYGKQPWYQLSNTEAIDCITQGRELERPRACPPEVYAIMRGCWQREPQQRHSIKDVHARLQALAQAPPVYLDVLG

| Compound | IC50 |
| --- | --- |
| Cc1cc(C)n(CC(=O)Nc2cc(C(=O)c3cn([C@H]4CC[C@H](O)CC4)c4ncncc34)ccn2)n1 [Example 3, 2-(3,5-dimethyl-1H-pyrazol-1-yl)-N-(4-{[7-(trans-4-hydroxycyclohexyl)-7H-pyrrolo[2,3-d]pyrimidin-5-yl]carbonyl}pyridin-2-yl)acetamide] | 183 nM |
| C[C@@H](CO)n1cc(C(=O)c2cc(NC(=O)Cn3ccc(C(F)(F)F)n3)ccn2)c2cncnc21 [Example 14, N-[2-({7-[(2S)-1-hydroxypropan-2-yl]-7H-pyrrolo[2,3-d]pyrimidin-5-yl}carbonyl)pyridin-4-yl]-2-[3-(trifluoromethyl)-1H-pyrazol-1-yl]acetamide] | 131 nM |
| CC(C)n1cc(C(=O)c2ccnc(NC(=O)Cc3ccccc3Cl)c2)c2cncnc21 [Example 159, 2-(2-chlorophenyl)-N-(4-{[7-(propan-2-yl)-7H-pyrrolo[2,3-d]pyrimidin-5-yl]carbonyl}pyridin-2-yl)acetamide] | 53.6 nM |
| CC(C)(CO)n1cc(C(=O)c2ccc(C#N)c(NC(=O)Cc3ccc(Cl)cn3)c2)c2cnc(N)nc21 [Example 8, N-(5-{[2-amino-7-(1-hydroxy-2-methylpropan-2-yl)-7H-pyrrolo[2,3-d]pyrimidin-5-yl]carbonyl}-2-cyanophenyl)-2-(5-chloropyridin-2-yl)acetamide] | 32 nM |
| Cc1ccn(CC(=O)Nc2cc(C(=O)c3cn(C(C)C)c4ncncc34)ccn2)n1 [Example 70, 2-(3-methyl-1H-pyrazol-1-yl)-N-(4-{[7-(propan-2-yl)-7H-pyrrolo[2,3-d]pyrimidin-5-yl]carbonyl}pyridin-2-yl)acetamide] | 144 nM |
| CC(CO)(CO)n1cc(C(=O)c2cc(NC(=O)Cc3cccc(C(F)(F)F)c3)ccn2)c2cncnc21 [Example 104, N-(2-{[7-(1,3-dihydroxy-2-methylpropan-2-yl)-7H-pyrrolo[2,3-d]pyrimidin-5-yl]carbonyl}pyridin-4-yl)-2-[3-(trifluoromethyl)phenyl]acetamide] | 91.1 nM |
| CC(C)(C)n1cc(C(=O)c2cc(NC(=O)Cc3ccc(Cl)cn3)ccn2)c2cncnc21 [Example 39, N-{2-[(7-tert-butyl-7H-pyrrolo[2,3-d]pyrimidin-5-yl)carbonyl]pyridin-4-yl}-2-(5-chloropyridin-2-yl)acetamide] | 5.27 nM |
| N#Cc1ccc(CC(=O)Nc2cc(C(=O)c3cn([C@H]4CC[C@@H](O)CC4)c4ncncc34)ccn2)cc1 [Example 5, 2-(4-cyanophenyl)-N-(4-{[7-(cis-4-hydroxycyclohexyl)-7H-pyrrolo[2,3-d]pyrimidin-5-yl]carbonyl}pyridin-2-yl)acetamide] | 75.6 nM |
| Cc1cc(C(F)(F)F)nn1CC(=O)Nc1ccnc(C(=O)c2cn(C(C)(CO)CO)c3ncncc23)c1 [Example 108, N-(2-{[7-(1,3-dihydroxy-2-methylpropan-2-yl)-7H-pyrrolo[2,3-d]pyrimidin-5-yl]carbonyl}pyridin-4-yl)-2-[5-methyl-3-(trifluoromethyl)-1H-pyrazol-1-yl]acetamide] | 369 nM |
| CC(CO)(CO)n1cc(C(=O)c2cc(NC(=O)Cc3ccc(C#N)cc3)ccn2)c2cncnc21 [Example 107, 2-(4-cyanophenyl)-N-(2-{[7-(1,3-dihydroxy-2-methylpropan-2-yl)-7H-pyrrolo[2,3-d]pyrimidin-5-yl]carbonyl}pyridin-4-yl)acetamide] | 467 nM |
| CC(C)n1cc(C(=O)c2ccnc(NC(=O)Cc3ccc(C(F)(F)F)c(F)c3)c2)c2cncnc21 [Example 124, 2-[3-fluoro-4-(trifluoromethyl)phenyl]-N-(4-{[7-(propan-2-yl)-7H-pyrrolo[2,3-d]pyrimidin-5-yl]carbonyl}pyridin-2-yl)acetamide] | 15.1 nM |
| C[C@@H](CO)n1cc(C(=O)c2cc(NC(=O)Cc3ccc(C#N)cc3)ccn2)c2cncnc21 [Example 15, 2-(4-cyanophenyl)-N-[2-({7-[(2S)-1-hydroxypropan-2-yl]-7H-pyrrolo[2,3-d]pyrimidin-5-yl}carbonyl)pyridin-4-yl]acetamide] | 94.8 nM |
| CC(C)(CO)n1cc(C(=O)c2cc(NC(=O)Cc3ccc(C(F)(F)F)cc3)ccn2)c2cnc(N)nc21 [Example 50, N-(2-{[2-amino-7-(1-hydroxy-2-methylpropan-2-yl)-7H-pyrrolo[2,3-d]pyrimidin-5-yl]carbonyl}pyridin-4-yl)-2-[4-(trifluoromethyl)phenyl]acetamide] | 9.29 nM |
| Cc1nccn1CC(=O)Nc1cc(C(=O)c2cn(C(C)C)c3ncncc23)ccn1 [Example 162, 2-(2-methyl-1H-imidazol-1-yl)-N-(4-{[7-(propan-2-yl)-7H-pyrrolo[2,3-d]pyrimidin-5-yl]carbonyl}pyridin-2-yl)acetamide] | 9800 nM |
| Cc1cc(C(F)(F)F)nn1CC(=O)Nc1cc(C(=O)c2cn(C(C)(C)CO)c3nc(N)ncc23)ccc1C#N [Example 10, N-(5-{[2-amino-7-(1-hydroxy-2-methylpropan-2-yl)-7H-pyrrolo[2,3-d]pyrimidin-5-yl]carbonyl}-2-cyanophenyl)-2-[5-methyl-3-(trifluoromethyl)-1H-pyrazol-1-yl]acetamide] | 13.2 nM |
| Cc1cc(C(=O)c2cn(C(C)C)c3ncncc23)cc(NC(=O)Cc2ccc(C#N)c(C(F)(F)F)c2)n1 [Example 78, 2-[4-cyano-3-(trifluoromethyl)phenyl]-N-(6-methyl-4-{[7-(propan-2-yl)-7H-pyrrolo[2,3-d]pyrimidin-5-yl]carbonyl}pyridin-2-yl)acetamide] | 118 nM |
| N-(2-{[7-(propan-2-yl)-7H-pyrrolo[2,3-d]pyrimidin-5-yl]carbonyl}pyridin-4-yl)-2-[4-(trifluoromethyl)-1H-1,2,3-triazol-1-yl]acetamide [Example 80] | 150 nM |
| CC(C)(C)n1cc(C(=O)c2cc(NC(=O)Cn3ccc(C4CC4)n3)ccn2)c2cncnc21 [Example 40, N-{2-[(7-tert-butyl-7H-pyrrolo[2,3-d]pyrimidin-5-yl)carbonyl]pyridin-4-yl}-2-(3-cyclopropyl-1H-pyrazol-1-yl)acetamide] | 8.38 nM |
| Cc1cc(C(=O)c2cn(C(C)C)c3ncncc23)cc(NC(=O)Cc2ccccc2)n1 [Example 75, N-(6-methyl-4-{[7-(propan-2-yl)-7H-pyrrolo[2,3-d]pyrimidin-5-yl]carbonyl}pyridin-2-yl)-2-phenylacetamide] | 306 nM |
| O=C(Cc1ccc(Cl)c(Cl)c1)Nc1ccnc(C(=O)c2cn(C(CO)CO)c3ncncc23)c1 [Example 99, 2-(3,4-dichlorophenyl)-N-(2-{[7-(1,3-dihydroxypropan-2-yl)-7H-pyrrolo[2,3-d]pyrimidin-5-yl]carbonyl}pyridin-4-yl)acetamide] | 430 nM |
| CS(=O)(=O)c1cccc(CC(=O)Nc2cc(C(=O)c3cn(CCO)c4ncncc34)ccn2)c1 [Example 131, N-(4-{[7-(2-hydroxyethyl)-7H-pyrrolo[2,3-d]pyrimidin-5-yl]carbonyl}pyridin-2-yl)-2-[3-(methylsulfonyl)phenyl]acetamide] | 1110 nM |
| Cc1cc(C)n(CC(=O)Nc2cc(C(=O)c3cn(C(CO)CO)c4ncncc34)ccn2)n1 [Example 112, 2-(3,5-Dimethyl-1H-pyrazol-1-yl)-N-[4-({7-[2-hydroxy-1-(hydroxymethyl)ethyl]-7H-pyrrolo[2,3-d]pyrimidin-5-yl}carbonyl)pyridin-2-yl]acetamide] | 682 nM |
